{"source": "patent US11252971B2", "about": "“Antimicrobial packaging films” (Cryovac, LLC, priority 2017, dated 2022)", "origin": "cited, not measured here", "settings": "GRAS by the U.S. Food and Drug Administration", "data": [{"smiles": "CCCCCCCCCCCC(=O)N[C@@H](CCCNC(=N)N)C(=O)OCC.Cl", "note": "[LAE, ethyl-N^α-dodecanoyl-L-arginate.HCl]", "values": [{"measurement": "Toxicity", "result": "nontoxic"}]}]}
